Results reported in publication PMC9287337 (Scientific Reports, 2022).
Read-outs that look alike come from different tables or passages of the source.

Tests used:
Format in all cases: cell-based, mouse
[1] = RealTime-Glo MT cell viability assay; conditions: mouse, serum-starved C2C12 cells, 24 h, serum-starved C2C12, read-out: Cell viability, percent of luminescence in control untreated cells
Experimental: (§1) To first determine how these novel compounds effect the health of C2C12 cells and to establish the range of subtoxic concentrations for future studies, cell viability assays were carried out. Serum-starved C2C12 cells were exposed to increasing concentrations (0.01–1000 µM) of SY-LB-35 and SY-LB-57 for 24 h. Exposure to Triton X-100 (125 µM) is toxic to cells and was used as a negative control for cell viability. Following the 24-h exposure period, the MT Cell viability substrate was added to the cultures. Only viable cells can reduce the substrate and, thereby, generate a luminescent signal. Any decrease in luminescence was considered an indication of cell death or toxicity.
(§2) C2C12 cells (100 µL) were seeded in a 96-well plate at 5 × 10^5 cells/mL and incubated overnight in complete growth media to achieve 80% confluency followed by serum-starvation for 16–18 h.
(§3) Next, reagents from the RealTime-Glo™ MT Cell Viability Assay Kit (Promega, Madison, WI, USA) were diluted in SS medium and used according to manufacturer’s protocol. Cellular luminescence was measured using the FilterMax F5 Multi-mode Microplate Reader (Molecular Devices, San Jose, CA, USA). Data from three independent experiments with individual experiments carried out in triplicate was determined and reported as a percentage of control.

C2C12 cells [2] = test: RealTime-Glo MT cell viability assay; conditions: for Increase in cell viability over control / Decrease in cell viability compared with control: 24 h; for IC50: non-linear regression, read-out: IC50 (concentration at which cell viability is reduced by 50%)
Experimental: as §1, §2, §3

[3] = test system: p-Akt cytoplasmic localization; test: Immunofluorescent labeling of p-Akt; conditions: 1 µM, 15 min
Experimental: To ascertain whether these novel indolyl-benzimidazole compounds can also activate non-canonical BMP-related pathways, stimulation of the PI3K/Akt pathway was assessed by first monitoring changes in the level of p-Akt in response to SY-LB-35 and SY-LB-57.

p-p38 = test: Western blot of p-p38; conditions: 0.01–10 µM, 15 min
Experimental: Whole cell lysates were prepared from the treated cultures for Western blot analysis.
C2C12 cells (3 mL) were seeded into 35 mm dishes at 7.5 × 10^4 cells/mL in complete growth medium, incubated to reach 80% confluence and serum-starved for 16–18 h. […] Thereafter, the cultures were washed with ice-cold 1X TBS for 2 min. Lysis Buffer (Cell Signaling Technology, Danvers, MA, USA) supplemented with 1 mM PMSF (phenylmethylsulphonyl fluoride) was added to the cultures and whole cell lysates were prepared.
Laemmli sample buffer (4X) was added to the whole cell lysates (20 µg) to a final concentration of 1X and heated at 100 °C for 5 min. The samples were immediately cooled on ice for 5 min and centrifuged at 9500 rpm for 2 min at RT. The samples and the Precision Plus Protein Standard (5 µL; Bio-Rad, Hercules, CA, USA) were loaded on 12% SDS polyacrylamide gels. […] Finally, the blots were developed using SuperSignal ™ West Femto HRP Substrate solutions (Thermo Scientific, Rockford, IL, USA) and analysed using the Omega Lum™ G Imaging System (San Francisco, CA, USA). Quantification of chemiluminescent signals was carried out using ImageJ (Image Processing and Analysis in Java 1.8.0_112).

C2C12 cells [4] = test: Cell cycle analysis by flow cytometry; conditions: 24 h
Experimental: C2C12 cells were starved in SS medium followed by 24-h treatment with 0.01–10 µM SY-LB-35 or SY-LB-57. The distribution of cell cycle phases was analyzed with respect to the control, untreated cells (Fig. 9). […] Furthermore, the percentage of cells in G0/G1 phase decreased with respect to control following the treatment of C2C12 cells with the indolyl-benzimidazole compounds (****p < 0.0005; ***p < 0.001; **p < 0.01; Fig. 9A). Thus, SY-LB-35 and SY-LB-57 at all tested concentrations shifted the cell cycle in C2C12 cells toward proliferation causing a significant decline in the population of cells in G0/G1 phase and a sharp increase in the percentage of cells present in proliferative phases of the cell cycle (S and G2/M).
Equal numbers (~ 10^6) of cells, from each treatment counted as above were collected, fixed with 4% paraformaldehyde (PFA) for 10 min at RT and pelleted at 300 g for 5 min. Cell pellets were washed with Stain buffer (BD Pharmingen, San Diego, CA, USA) followed by permeabilization with 90% ice-cold methanol for 15 min at 4 °C. The cells were again washed with Stain buffer and the pelleted cells were stained with BD Pharmingen Propidium Iodide/RNase Staining Buffer (0.5 mL/10^6 cells) for 30 min at RT while protected from light. Following two more washes, the pellet was resuspended in 225 µL Stain buffer and the cells were divided into 3 microcentrifuge tubes (75 µL each) for analysis with the Amnis® Flowsight Imaging Flow Cytometer (Austin, TX, USA). IDEAS® software (version 6.2, Seattle, WA, USA) was used to analyse the data files.

Oc1ccc2[nH]c(-c3nc4ccccc4[nH]3)cc2c1 [SY-LB-35]
viability at 24 h, 0.01 µM [1]: 241%
viability at 24 h, 0.1 µM [1]: 244%
viability at 24 h, 1 µM [1]: 218%
viability at 24 h, 10 µM [1]: 137%
viability at 24 h, 100 µM [1]: 69%
viability at 24 h, 1 mM [1]: 13%
Increase in cell viability over control (C2C12 cells [2]; 0.01 µM): 150 % over control
Increase in cell viability over control (C2C12 cells [2]; 0.1 µM): 150 % over control
Increase in cell viability over control (C2C12 cells [2]; 1 µM): 120 % over control
Decrease in cell viability compared with control (C2C12 cells [2]; 100 µM): 30 % decrease
Decrease in cell viability compared with control (C2C12 cells [2]; 1 mM): 80 % decrease
IC50 (C2C12 cells [2]; C2C12, 24 h): 401 µM
IC50 (C2C12 cells [2]; Mus musculus, C2C12, 24 h): 401 µM
p-Akt immunofluorescent labeling [3]: robust, punctate, cytoplasmic p-Akt labeling
p-p38 level (p-p38): stimulated increases
Cells in G0/G1 phase (C2C12 cells [4]; 0.01 µM): 76%
Cells in G2/M phase (C2C12 cells [4]; 0.01 µM): 13%
Cells in S phase (C2C12 cells [4]; 0.01 µM): 11%
Cells in G0/G1 phase (C2C12 cells [4]; 0.1 µM): 76%
Cells in G2/M phase (C2C12 cells [4]; 0.1 µM): 12%
Cells in S phase (C2C12 cells [4]; 0.1 µM): 12%
Cells in G0/G1 phase (C2C12 cells [4]; 1 µM): 77%
Cells in G2/M phase (C2C12 cells [4]; 1 µM): 11%
Cells in S phase (C2C12 cells [4]; 1 µM): 12%
Cells in G0/G1 phase (C2C12 cells [4]; 10 µM): 76%
Cells in G2/M phase (C2C12 cells [4]; 10 µM): 11%
Cells in S phase (C2C12 cells [4]; 10 µM): 12%

COc1ccc2[nH]c(-c3nc4ccccc4[nH]3)cc2c1 [SY-LB-57]
viability at 24 h, 0.01 µM [1]: 390%
viability at 24 h, 0.1 µM [1]: 394%
viability at 24 h, 1 µM [1]: 301%
viability at 24 h, 10 µM [1]: 251%
viability at 24 h, 100 µM [1]: 151%
viability at 24 h, 1 mM [1]: 20%
Non-toxic / safe concentrations (C2C12 cells [2]; C2C12, 24 h): ≤ 10 µM
IC50 (C2C12 cells [2]; C2C12, 24 h): 808 µM
IC50 (C2C12 cells [2]; Mus musculus, C2C12, 24 h): 808 µM
p-Akt immunofluorescent labeling [3]: robust, punctate, cytoplasmic p-Akt labeling
p-p38 level (p-p38): stimulated increases
Cells in G0/G1 phase (C2C12 cells [4]; 0.01 µM): 76%
Cells in G2/M phase (C2C12 cells [4]; 0.01 µM): 13%
Cells in S phase (C2C12 cells [4]; 0.01 µM): 13%
Cells in G0/G1 phase (C2C12 cells [4]; 0.1 µM): 76%
Cells in G2/M phase (C2C12 cells [4]; 0.1 µM): 11%
Cells in S phase (C2C12 cells [4]; 0.1 µM): 14%
Cells in G0/G1 phase (C2C12 cells [4]; 1 µM): 77%
Cells in G2/M phase (C2C12 cells [4]; 1 µM): 11%
Cells in S phase (C2C12 cells [4]; 1 µM): 12%
Cells in G0/G1 phase (C2C12 cells [4]; 10 µM): 79%
Cells in G2/M phase (C2C12 cells [4]; 10 µM): 10%
Cells in S phase (C2C12 cells [4]; 10 µM): 13%
